Drawing on patent publication US20050124498A1, “Halobenzyl substituted phenylaceto esters and amides and use thereof for prevention of harmful organisms” (priority 2002, published 2005), this text covers chromatographic logP for 28 compounds.

The data set in a line: physchem. The settings on record: logP.
For the compound `CNC(=O)/C(=N/OC)c1ccc(F)cc1Oc1ncnc(Oc2ccccc2C#N)c1F` [Example 11], the chromatographic logP – broadly, lipophilicity estimated from chromatographic retention – was 2.68.

Take `CNC(=O)/C(=N/OC)c1ccc(F)cc1Oc1nc(C)c(Cl)c(OCC(F)(F)C(F)(F)F)n1` [Example 13]: the chromatographic logP is 3.58.

The compound `CNC(=O)/C(=N/OC)c1ccc(F)cc1Oc1ncnc(Oc2cccc(F)c2)c1F` [Example 17] gave a chromatographic logP of 3.07.

The compound `CNC(=O)/C(=N/OC)c1ccc(F)cc1Oc1ncnc(Oc2cccc(C#N)c2)c1F` [Example 18] yielded a chromatographic logP of 2.71.

In turn, `CNC(=O)/C(=N/OC)c1ccc(F)cc1Oc1ncnc(Oc2cccc(OC)c2)c1F` [Example 19] had a chromatographic logP of 2.91.

With `CNC(=O)/C(=N/OC)c1ccc(F)cc1Oc1ncnc(Oc2ccccc2OC)c1F` [Example 20], the chromatographic logP is 2.82.

`CNC(=O)/C(=N/OC)c1ccc(F)cc1Oc1ncnc(Oc2cccc(Cl)c2)c1F` [Example 21] registered a chromatographic logP of 3.31.

`CNC(=O)/C(=N/OC)c1ccc(F)cc1Oc1ncnc(Oc2ccccc2SC)c1F` [Example 23] showed a chromatographic logP of 3.07.

In turn, `CNC(=O)/C(=N/OC)c1ccc(F)cc1Oc1ncnc(Oc2ccc(SC)cc2)c1F` [Example 24] registered a chromatographic logP of 3.24.

For `CNC(=O)/C(=N/OC)c1ccc(F)cc1Oc1ncnc(Oc2cc(C)ccc2Cl)c1F` [Example 25], the chromatographic logP worked out at 3.45.

With `CNC(=O)/C(=N/OC)c1ccc(F)cc1Oc1ncnc(Oc2ccc(F)cc2Cl)c1F` [Example 26], the chromatographic logP turned out to be 3.27.

Compound `CNC(=O)/C(=N/OC)c1ccc(F)cc1Oc1ncnc(Oc2ccccc2OC(C)C)c1F` [Example 27] had a chromatographic logP of 3.32.

`CNC(=O)/C(=N/OC)c1ccc(F)cc1Oc1ncnc(Oc2ccc(SC)c(C)c2)c1F` [Example 28] gave a chromatographic logP of 3.54.

For `CNC(=O)/C(=N/OC)c1ccc(F)cc1Oc1ncnc(Oc2ccc(OC)cc2Cl)c1F` [Example 29], the chromatographic logP worked out at 3.2.

Turning to `CNC(=O)/C(=N/OC)c1ccc(F)cc1Oc1ncnc(Oc2cccc(C(F)(F)F)c2)c1F` [Example 30], the chromatographic logP worked out at 3.46.

Take `CNC(=O)/C(=N/OC)c1ccc(F)cc1Oc1ncnc(Oc2ccc(C(F)(F)F)cc2)c1F` [Example 32]: the chromatographic logP worked out at 3.49.

Take `CNC(=O)/C(=N/OC)c1ccc(F)cc1Oc1ncnc(Oc2ccccc2Br)c1F` [Example 34]: the chromatographic logP was determined as 3.22.

The compound `CNC(=O)/C(=N/OC)c1ccc(F)cc1Oc1ncnc(Oc2cccc(OC(F)(F)F)c2)c1F` [Example 36] yielded a chromatographic logP of 3.46.

In turn, `CNC(=O)/C(=N/OC)c1ccc(F)cc1Oc1ncnc(Oc2ccc(Br)cc2C)c1F` [Example 37] registered a chromatographic logP of 3.57.

Regarding `CNC(=O)/C(=N/OC)c1ccc(F)cc1Oc1ncnc(Oc2ccc(OC(F)(F)F)cc2C)c1F` [Example 38], the chromatographic logP came out at 3.71.

Take `CNC(=O)/C(=N/OC)c1ccc(F)cc1Oc1ncnc(Oc2ccc(SC(F)(F)F)cc2)c1F` [Example 39]: the chromatographic logP was 3.75.

In the case of `CO/N=C(/C(=O)OC)c1c(F)cccc1CO/N=C1\CCc2ccc(OC)cc21` [Example 49], the chromatographic logP amounted to 3.65.

Turning to `CNC(=O)/C(=N/OC)c1c(F)cccc1CO/N=C1\CCc2ccc(OC)cc21` [Example 52], the chromatographic logP stood at 3.08.

For `CO/N=C(/C(=O)OC)c1c(F)cccc1Oc1cc(C(F)(F)F)ncn1` [Example 53], the chromatographic logP came to 2.91.

On to `CO/N=C(\C(C)=N\OCc1cccc(F)c1/C(=N\OC)C(=O)OC)c1ccc(F)cc1F` [Example 54], for which the chromatographic logP was determined as 4.13.

Compound `CNC(=O)/C(=N/OC)c1c(F)cccc1CO/N=C(C)/C(=N\OC)c1ccc(F)cc1F` [Example 55] returned a chromatographic logP of 3.57.

`CNC(=O)/C(=N/OC)c1c(F)cccc1CO/N=C(C)/C(=N\OC)c1ccc(C)cc1` [Example 58] registered a chromatographic logP of 3.71.

`CNC(=O)/C(=N/OC)c1c(F)cccc1CO/N=C(C)/C(=N\OC)c1ccc(F)cc1` [Example 59] came in with a chromatographic logP of 3.5.
